In patent US20240342292A1, “Compounds for the Degradation of EGFR Kinase” (BeiGene Switzerland GmbH, priority 2021, published 2024):

Assays:
[1] = biological target: T1, L858R/T790M/C797S EGFR (Homo sapiens, UniProt P00533, C797S/L858R/T790M); experiment: EGFR degradation HTRF assay in H1975-clone #25 (LTC) cells; format: cell-based; conditions: 16h treatment; for DC50: H1975 # 25-LTC (L858R/T790M/C797S), HTRF; for Dmax: NCI-H1975, H1975 # 25-LTC (L858R/T790M/C797S), maximum percentage of degradation
T1 construct: expressed in transfected cells; host or cells: H1975 clone #25 (lentiviral over-expression, endogenous EGFR knocked out by sgRNA)
T1 sequence (P00533 25-1210 T790M/C797S/L858R): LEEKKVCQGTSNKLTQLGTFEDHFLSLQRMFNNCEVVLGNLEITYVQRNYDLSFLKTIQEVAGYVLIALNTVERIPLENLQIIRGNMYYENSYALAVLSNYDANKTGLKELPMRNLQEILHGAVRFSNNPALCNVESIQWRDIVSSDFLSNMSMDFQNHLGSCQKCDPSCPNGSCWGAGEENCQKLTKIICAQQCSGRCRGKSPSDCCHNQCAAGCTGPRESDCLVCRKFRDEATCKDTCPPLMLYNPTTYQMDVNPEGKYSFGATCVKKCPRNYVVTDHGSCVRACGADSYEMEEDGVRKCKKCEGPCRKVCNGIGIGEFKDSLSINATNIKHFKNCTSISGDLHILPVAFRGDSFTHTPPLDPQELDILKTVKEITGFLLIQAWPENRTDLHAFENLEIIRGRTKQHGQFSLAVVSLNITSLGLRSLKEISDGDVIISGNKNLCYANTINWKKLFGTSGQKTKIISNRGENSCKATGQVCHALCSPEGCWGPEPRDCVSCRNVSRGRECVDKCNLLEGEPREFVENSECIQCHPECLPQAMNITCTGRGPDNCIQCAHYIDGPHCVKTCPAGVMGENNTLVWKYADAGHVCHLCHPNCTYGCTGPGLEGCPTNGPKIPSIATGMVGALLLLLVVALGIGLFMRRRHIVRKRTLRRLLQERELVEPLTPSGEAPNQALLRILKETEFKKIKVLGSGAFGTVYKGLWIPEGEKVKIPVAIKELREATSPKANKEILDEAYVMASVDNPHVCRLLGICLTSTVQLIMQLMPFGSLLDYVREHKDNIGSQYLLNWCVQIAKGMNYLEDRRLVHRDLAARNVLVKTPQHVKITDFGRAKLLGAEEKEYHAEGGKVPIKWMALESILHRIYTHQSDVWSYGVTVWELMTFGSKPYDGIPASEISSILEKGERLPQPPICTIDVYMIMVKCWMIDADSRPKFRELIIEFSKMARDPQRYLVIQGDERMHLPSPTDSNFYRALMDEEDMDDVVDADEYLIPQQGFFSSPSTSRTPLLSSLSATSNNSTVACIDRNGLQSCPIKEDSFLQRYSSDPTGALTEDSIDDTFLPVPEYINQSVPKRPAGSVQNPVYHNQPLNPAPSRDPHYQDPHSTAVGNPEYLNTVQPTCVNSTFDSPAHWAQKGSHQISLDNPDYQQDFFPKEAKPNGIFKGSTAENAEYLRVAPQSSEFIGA
Procedure, shortened: (§1)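 Each homozygous H1975 clone was dosed for 16 h at 37 °C with an 8-dose, 5-fold series (top 10 uM, 0.2% DMSO). An HTRF antibody pair then measured EGFR in lysates, and a sigmoidal fit of percent inhibition gave DC50.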

[2] = system: Del19/T790M/C797S EGFR; experiment: EGFR degradation HTRF assay in H1975-clone #28 (DTC) cells; format: cell-based; conditions: H1975 # 28 DTC (Del19/T790M/C797S), 16h treatment; for DC50: HTRF; for Dmax (%): maximum percentage of degradation
Procedure, shortened: as §1

| Structure (SMILES) | DC50 [1] [nM] | Dmax [1] [%] | DC50 [2] [nM] | Dmax (%) [2] [%] |
| --- | --- | --- | --- | --- |
| Cc1cc2cc(n1)-c1cnn(C)c1OCCC[C@@H](C)CN1/C(=N/C2=O)Nc2ccc(C(=O)N[C@H]3CCN(CCc4cc(F)c([C@H]5CCC(=O)NC5=O)c(F)c4)C[C@@H]3F)cc21 [Example 342, (R,E)-N—((3S,4S)-1-(4-((R)-2,6-dioxopiperidin-3-yl)-3,5-difluorophenethyl)-3-fluoropiperidin-4-yl)-1^1,2^6,7-trimethyl-3-oxo-5^2,5^3-dihydro-1^1H,5^1H-11-oxa-4-aza-5(2,1)-benzo[d]imidazola-2(2,4)-pyridina-1(4,5)-pyrazolacycloundecaphane-5^6-carboxamide] | 0.62 | 90.8 | 0.607 | 77.52 |
| Cc1cc2cc(n1)-c1cnn(C)c1OCCC[C@@H](C)CN1/C(=N/C2=O)Nc2ccc(C(=O)N[C@H]3CCN(CCc4cc(F)c([C@H]5CCC(=O)NC5=O)c(F)c4)C[C@H]3F)cc21 [Example 343, (R,E)-N—((3R,4S)-1-(4-((R)-2,6-dioxopiperidin-3-yl)-3,5-difluorophenethyl)-3-fluoropiperidin-4-yl)-1^1,2^6,7-trimethyl-3-oxo-5^2,5^3-dihydro-1^1H,5^1H-11-oxa-4-aza-5(2,1)-benzo[d]imidazola-2(2,4)-pyridina-1(4,5)-pyrazolacycloundecaphane-5^6-carboxamide] | 0.599 | 90.5 | 0.609 | 76.11 |
| Cc1cc2cc(n1)-c1cnn(C)c1OCC[C@H]1C[C@@H]1CN1/C(=N/C2=O)Nc2ccc(N3CCN([C@H]4C[C@H](Nc5cc(F)c([C@H]6CCC(=O)NC6=O)c(F)c5)C4)CC3)cc21 (single isomer, unassigned) [Example 443] | 1.25 | 86.6 | 0.633 | 78.26 |
| Cc1cc2cc(n1)-c1cnn(C)c1OCC[C@@H]1C[C@H]1CN1/C(=N/C2=O)Nc2ccc(N3CCN(C4CCN(c5cc(F)c([C@H]6CCC(=O)NC6=O)c(F)c5)CC4)CC3)cc21 [Example 441, (R)-3-(4-(4-(4-((7′R,7^2S,E)-1^1,2^6-dimethyl-3-oxo-5^2,5^3-dihydro-1^1H,5^1H-10-oxa-4-aza-5(2,1)-benzo[d]imidazola-2(2,4)-pyridina-1(4,5)-pyrazola-7(1,2)-cyclopropanacyclodecaphane-5^6-yl)piperazin-1-yl)piperidin-1-yl)-2,6-difluorophenyl)piperidine-2,6-dione] | 0.857 | 89.2 | 0.643 | 89.27 |
| Cc1cc2cc(n1)-c1cnn(C)c1OCCC[C@@H](C)CN1/C(=N/C2=O)Nc2ccc(C(=O)N(C)C3CCN(CCc4cccc5c4C(C)(C)C(=O)N5[C@H]4CCC(=O)NC4=O)CC3)cc21 [Example 379, (R,E)-N-(1-(2-(1-((S)-2,6-dioxopiperidin-3-yl)-3,3-dimethyl-2-oxoindolin-4-yl)ethyl)piperidin-4-yl)-N,1^1,2^6,7-tetramethyl-3-oxo-5^2,5^3-dihydro-1^1H,5^1H-11-oxa-4-aza-5(2,1)-benzo[d]imidazola-2(2,4)-pyridina-1(4,5)-pyrazolacycloundecaphane-5^6-carboxamide] | 0.503 | 80.9 | 0.682 | 67.89 |
| Cc1cc2cc(n1)-c1cnn(C)c1OCCC[C@@H](C)CN1/C(=N/C2=O)Nc2ccc(N3CCN(C4CCN(c5cnc([C@H]6CCC(=O)NC6=O)c(F)c5)CC4)CC3=O)cc21 (single isomer, unassigned) [Example 460] | 0.431 | 89.6 | 0.629 | 75.27 |
| Cc1cc2cc(n1)-c1cnn(C)c1OCCC[C@@H](C)CN1/C(=N/C2=O)Nc2ccc(C(=O)N(C)[C@@H]3C[C@H]4CC[C@@H](C3)N4CCc3cc(F)c([C@H]4CCC(=O)NC4=O)c(F)c3)cc21 [Example 265, (R,E)-N—((1R,3S,5S)-8-(4-((R)-2,6-dioxopiperidin-3-yl)-3,5-difluorophenethyl)-8-azabicyclo[3.2.1]octan-3-yl)-N,1^1,2^6,7-tetramethyl-3-oxo-5^2,5^3-dihydro-1^1H,5^1H-11-oxa-4-aza-5(2,1)-benzo[d]imidazola-2(2,4)-pyridina-1(4,5)-pyrazolacycloundecaphane-5^6-carboxamide] | 0.246 | 90.9 | 0.625 | 79.26 |

Further lines, with some results ahead:

| DC50 [1] [nM] | Dmax [1] [%] | DC50 [2] [nM] | Structure (SMILES) | Dmax (%) [2] [%] |
| --- | --- | --- | --- | --- |
| 0.411 | 90.4 | 0.501 | CCN(CCN1CCN(c2cc(F)c([C@H]3CCC(=O)NC3=O)c(F)c2)CC1)C(=O)c1ccc2c(c1)N1C[C@H](C)CCCOc3c(cnn3C)-c3cc(cc(C)n3)C(=O)/N=C/1N2 [Example 281, (R,E)-N-(2-(4-(4-((R)-2,6-dioxopiperidin-3-yl)-3,5-difluorophenyl)piperazin-1-yl)ethyl)-N-ethyl-1′,2^6,7-trimethyl-3-oxo-5^2,5^3-dihydro-1^1H,5^1H-11-oxa-4-aza-5(2,1)-benzo[d]imidazola-2(2,4)-pyridina-1(4,5)-pyrazolacycloundecaphane-5^6-carboxamide] | 75.01 |
| 0.517 | 60.7 | 3.2 | Cc1cc2cc(n1)-c1cnn(C)c1OCCC[C@@H](C)CN1/C(=N/C2=O)Nc2ccc(N3CCN(C4CCN(c5cc(F)c([C@H]6CCC(=O)NC6=O)c(F)c5)CC4)CC34CC4)cc21 [Example 418, (R)-3-(2,6-difluoro-4-(4-(4-((R,E)-1^1,2^6,7-trimethyl-3-oxo-5^2,5^3-dihydro-1^1H,5^1H-11-oxa-4-aza-5(2,1)-benzo[d]imidazola-2(2,4)-pyridina-1(4,5)-pyrazolacycloundecaphane-5^6-yl)-4,7-diazaspiro[2.5]octan-7-yl)piperidin-1-yl)phenyl)piperidine-2,6-dione] | 91.56 |
| 0.657 | 79.4 | 0.789 | Cc1cc2cc(n1)-c1cnn(C)c1OCCC[C@@H](C)CN1/C(=N/C2=O)Nc2ccc(N3CCC(C(=O)N(C)CCc4cc(F)c([C@H]5CCC(=O)NC5=O)c(F)c4)CC3)cc21 [Example 335, N-(4-((R)-2,6-dioxopiperidin-3-yl)-3,5-difluorophenethyl)-N-methyl-1-((R,E)-1^1,2^6,7-trimethyl-3-oxo-5^2,5^3-dihydro-1^1H,5^1H-11-oxa-4-aza-5(2,1)-benzo[d]imidazola-2(2,4)-pyridina-1(4,5)-pyrazolacycloundecaphane-5^6-yl)piperidine-4-carboxamide] | 60.16 |
| 2 | 93.7 | 2.4 | Cc1cc2cc(n1)-c1cnn(C)c1OCCC[C@@H](C)CN1/C(=N/C2=O)Nc2ccc(CN3CCC4(CC3)CN(C(=O)[C@H]3CN(c5cc(F)c([C@H]6CCC(=O)NC6=O)c(F)c5)CC3(C)C)C4)cc21 [Example 26, (R)-3-(4-((R)-3,3-dimethyl-4-(7-(((R,E)-1^1,2^6,7-trimethyl-3-oxo-5^2,5^3-dihydro-1^1H,5^1H-11-oxa-4-aza-5(2,1)-benzo[d]imidazola-2(2,4)-pyridina-(4,5)-pyrazolacycloundecaphane-5^6-yl)methyl)-2,7-diazaspiro[3.5]nonane-2-carbonyl)pyrrolidin-1-yl)-2,6-difluorophenyl)piperidine-2,6-dione] | 81.2 |
| 0.622 | 89.6 | 1.3 | Cc1cc2cc(n1)-c1cnn(C)c1OCCC[C@@H](C)CN1/C(=N/C2=O)Nc2ccc(N3CC[C@H](C(=O)N4CCN(c5cc(F)c([C@H]6CCC(=O)NC6=O)c(F)c5)CC4)C3)cc21 [Example 358, (R)-3-(2,6-difluoro-4-(4-((S)-1-((R,E)-1^1,2^4,7-trimethyl-3-oxo-5^2,5^3-dihydro-1^1H,5^1H-11-oxa-4-aza-5(2,1)-benzo[d]imidazola-2(2,4)-pyridina-1(4,5)-pyrazolacycloundecaphane-5^6-yl)pyrrolidine-3-carbonyl)piperazin-1-yl)phenyl)piperidine-2,6-dione] | 75.67 |
| 0.599 | 91.1 | 0.566 | CO[C@H]1CN(CCc2cc(F)c([C@H]3CCC(=O)NC3=O)c(F)c2)CC[C@H]1N(C)C(=O)c1ccc2c(c1)N1C[C@H](C)CCCOc3c(cnn3C)-c3cc(cc(C)n3)C(=O)/N=C/1N2 [Example 255, (R,E)-N—((3S,4R)-1-(4-((R)-2,6-dioxopiperidin-3-yl)-3,5-difluorophenethyl)-3-methoxypiperidin-4-yl)-N,1^1,2^6,7-tetramethyl-3-oxo-5^2,5^3-dihydro-1^1H,5^1H-11-oxa-4-aza-5(2,1)-benzo[d]imidazola-2(2,4) -pyridina-1(4,5)-pyrazolacycloundecaphane-5^6-carboxamide] | 81.82 |
| 1 | 85.5 | 0.7 | Cc1cc2cc(n1)-c1cnn(C)c1OCCC[C@@H](C)CN1/C(=N/C2=O)Nc2ccc(CN3CCN(C(=O)[C@@H]4CCN(c5cc(F)c([C@H]6CCC(=O)NC6=O)c(F)c5)C4)C[C@H]3C)cc21 [Example 100, (R)-3-(2,6-difluoro-4-((R)-3-((R)-3-methyl-4-(((R,E)-1^1,2^6,7-trimethyl-3-oxo-5^2,5^3-dihydro-1^1H,5^1H -11-oxa-4-aza-5(2,1)-benzo[d]imidazola-2(2,4)-pyridina-(4,5)-pyrazolacycloundecaphane-5^6-yl)methyl)piperazine-1-carbonyl)pyrrolidin-1-yl)phenyl)piperidine-2,6-dione] | 72.8 |
